In patent US8802656B2, “Purified phospholipid-non-steroidal anti-inflammatory drug associated compositions and methods for preparing and using same” (priority 2004, dated 2014):
“Also recorded” adds a separate entry of the source.

System: rats injected with CFA in a hind paw
Test: Pain pressure threshold (modified Randall-Selitto) in rats with CFA-inflamed hind paw, acute oral dosing
Type: in vivo, rat
Conditions: for pain pressure threshold: ibuprofen 20 or 50 mg/kg, indomethacin 1 mg/kg intragastric, two hours after dosing, CFA 4 days before, FIG. 4
Protocol: In the second in vivo experiment, we compared the analgesic activity of the acetone preparation of PC-ibuprofen to that of ibuprofen alone (at doses of 20 and 50 mg/kg) in rats and compared the response to a sub-threshod dose of indomethacin (1 mg/kg). The measurements were made on rats, in which 0.1 mL of Complete Freund's Adjuvant (CFA) was subcutaneously injected into the dorsal surface of the left hindpaw, 4 days previously to increase the affected paw's sensitivity to pressure. […] Myeloperoxidase Activity In this experiment, we evaluated the analgesic activity of the test material using a rodent model system previously described in detail. This was accomplished by initially inducing inflammation of a hind paw of male Sprague Dawley rats by subcutaneously injecting 0.1 mL of Complete Freund's Adjuvant (Sigma Chemical Co. St. Louis, Mo.) into the doral surface of the left hind paw. […] For comparison, we also intragastrically administered a group of rats with a sub-threshold dose (1 mg/kg) of the NSAID, indomethacin, that was suspended in 1% methyl cellulose.

In the case of `CC(=O)Oc1ccccc1C(=O)O` [ASA, Aspirin], the pain threshold (CFA induced inflammation, Randall Siletto procedure, ASA formulations, FIG. 13) is reported as “performed similarly”.

With `CC(C)Cc1ccc(C(C)C(=O)O)cc1` (stereo not shown) [ibuprofen] the pain pressure threshold (listed as generic ibuprofen) was “dose-dependent increase in pain pressure threshold” and the pain pressure threshold (listed as unmodified ibuprofen) was “apparent dose-dependent increase in pain pressure threshold”.

For `COc1ccc2c(c1)c(CC(=O)O)c(C)n2C(=O)c1ccc(Cl)cc1` [indomethacin], the pain pressure threshold was “no effect; also recorded: non-significant response”.
